According to paper PMC3582512, “Application of a Novel Microtitre Plate-Based Assay for the Discovery of New Inhibitors of DNA Gyrase and DNA Topoisomerase VI” (PLoS ONE, 2013):
Entries after “also recorded” stand apart in the source; their conditions may differ.

What was measured:
[1] = molecular target: T1, S. shibatae topo VI (Saccharolobus shibatae, UniProt O05207+O05208); test: Gel-based relaxation assay with S. shibatae topo VI; format: biochemical, Sulfolobus shibatae
T1 construct: gift from Danielle Gadelle (University of Paris XI, Orsay)
T1 sequence (O05207 whole entry): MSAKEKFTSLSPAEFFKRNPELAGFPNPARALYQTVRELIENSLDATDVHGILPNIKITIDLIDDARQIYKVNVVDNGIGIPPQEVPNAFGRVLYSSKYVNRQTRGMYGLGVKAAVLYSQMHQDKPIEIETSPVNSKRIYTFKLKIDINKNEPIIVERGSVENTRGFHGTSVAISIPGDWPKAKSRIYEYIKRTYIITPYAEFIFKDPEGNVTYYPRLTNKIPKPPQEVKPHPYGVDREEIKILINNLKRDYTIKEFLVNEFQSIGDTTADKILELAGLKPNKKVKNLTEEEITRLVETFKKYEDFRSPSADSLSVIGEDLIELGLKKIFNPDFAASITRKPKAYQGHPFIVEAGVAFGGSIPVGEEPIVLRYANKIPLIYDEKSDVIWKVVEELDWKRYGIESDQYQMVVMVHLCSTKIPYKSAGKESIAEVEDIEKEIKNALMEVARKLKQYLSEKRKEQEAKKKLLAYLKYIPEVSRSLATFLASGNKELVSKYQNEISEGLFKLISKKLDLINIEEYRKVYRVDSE
T1 sequence (O05208 whole entry): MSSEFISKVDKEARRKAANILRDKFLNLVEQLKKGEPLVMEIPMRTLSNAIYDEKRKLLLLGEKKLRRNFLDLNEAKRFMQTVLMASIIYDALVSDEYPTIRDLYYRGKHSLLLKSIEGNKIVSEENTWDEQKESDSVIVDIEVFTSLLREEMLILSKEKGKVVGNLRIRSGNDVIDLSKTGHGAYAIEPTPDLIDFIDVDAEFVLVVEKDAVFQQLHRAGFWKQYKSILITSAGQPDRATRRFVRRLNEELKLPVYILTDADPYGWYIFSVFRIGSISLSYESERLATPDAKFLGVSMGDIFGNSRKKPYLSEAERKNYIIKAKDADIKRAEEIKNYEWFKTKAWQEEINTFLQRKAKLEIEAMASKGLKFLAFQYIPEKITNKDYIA
Experimental: (§1) The agarose gel-based assay was conducted as previously described, [44], [62]. In brief, topoisomerases were incubated with 0.5 µg of plasmid and the desired concentration of compound for 30 min at 37°C (for DNA gyrase and M. mazei topo VI) or 5 min at 75°C (for S. shibatae topo VI), in a total volume of 30 µL. […] Reactions were stopped by the addition of a loading buffer containing EDTA and the drug extracted by vortexing with either chloroform or aqueous butanol as required. In the case of M. mazei topo VI, it was necessary to include SDS in the loading buffer, at a final concentration of 1%. Samples were loaded onto a 1% agarose gel, run for the appropriate length of time and stained with ethidium bromide before visualisation on a UV transilluminator.

[2] = system: Arabidopsis thaliana hypocotyl cells; test: Cryo-SEM of Arabidopsis hypocotyls (cell size); format: in vivo; conditions: 40 µM, 5 days in the dark; control ∼300 µm
Description: Five day old hypocotyls grown on media containing various concentrations of compound were frozen in nitrogen slush and loaded into a Philips XL30 SEM with a cryo stage installed. Samples were sputter coated with platinum and transferred into the microscope chamber for image collection.

[3] = molecular target: T2, M. mazei topo VI (Methanosarcina mazei, UniProt Q8PUB7+Q8PUB8); test: Agarose gel-based DNA relaxation assay; format: biochemical; conditions: for IC50: gel relaxation assay, 1 unit (50 nM) topo VI, read-out: Approx. IC50 against M. mazei topo VI
T2 construct: His tag; made in house
T2 sequence (Q8PUB8 whole entry): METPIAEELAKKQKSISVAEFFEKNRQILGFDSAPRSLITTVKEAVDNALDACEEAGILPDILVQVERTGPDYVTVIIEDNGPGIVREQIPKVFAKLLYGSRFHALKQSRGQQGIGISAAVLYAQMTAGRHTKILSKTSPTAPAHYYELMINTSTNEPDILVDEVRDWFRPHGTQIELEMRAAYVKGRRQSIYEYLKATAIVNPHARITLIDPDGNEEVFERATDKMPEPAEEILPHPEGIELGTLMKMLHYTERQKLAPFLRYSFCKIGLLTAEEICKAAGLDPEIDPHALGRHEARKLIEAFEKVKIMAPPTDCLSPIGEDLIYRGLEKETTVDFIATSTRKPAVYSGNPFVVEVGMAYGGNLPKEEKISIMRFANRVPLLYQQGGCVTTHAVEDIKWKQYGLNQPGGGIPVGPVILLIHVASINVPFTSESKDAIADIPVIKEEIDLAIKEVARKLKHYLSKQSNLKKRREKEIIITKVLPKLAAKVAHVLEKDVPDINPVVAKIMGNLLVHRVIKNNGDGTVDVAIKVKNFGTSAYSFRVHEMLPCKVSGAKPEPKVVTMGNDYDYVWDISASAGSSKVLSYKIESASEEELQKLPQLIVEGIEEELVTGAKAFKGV
T2 sequence (Q8PUB7 whole entry): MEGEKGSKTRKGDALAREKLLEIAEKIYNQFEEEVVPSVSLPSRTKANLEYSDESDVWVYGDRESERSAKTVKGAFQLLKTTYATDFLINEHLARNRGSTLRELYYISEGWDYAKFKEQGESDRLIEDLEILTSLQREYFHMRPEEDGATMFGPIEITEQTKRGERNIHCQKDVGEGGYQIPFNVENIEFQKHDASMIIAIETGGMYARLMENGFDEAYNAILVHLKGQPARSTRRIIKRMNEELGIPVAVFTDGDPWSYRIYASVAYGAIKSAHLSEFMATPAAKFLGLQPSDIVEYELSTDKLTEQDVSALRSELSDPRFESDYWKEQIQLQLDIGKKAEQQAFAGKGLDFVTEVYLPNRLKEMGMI
Experimental: as §1

[4] = system: Arabidopsis thaliana columbia (Col-0); test: Arabidopsis hypocotyl extension assay and plant growth; format: in vivo
Experimental: The hypocotyl extension assay was conducted as previously described, [66]. MS Salts medium (containing micro and macro elements including vitamins, pH 5.8) was supplemented with 1 g/L sucrose and 0.7 g/L phytagel (Sigma) before autoclaving. After the medium cooled to ∼50°C it was divided into 50 mL aliquots and compounds to be tested (or an equivalent amount of appropriate solvent for control plates) then added at the desired concentration under aseptic conditions. The media were then poured into separate 100 mm square Petri dishes and allowed to cool to room temperature in a laminar flow hood. Arabidopsis thaliana columbia (Col-0) seeds were surface sterilised with 5% bleach for 10 min immediately prior to use. The seeds were then washed three times with sterile water under a laminar flow hood. After surface sterilisation the seeds were planted in a grid pattern (32 seeds per dish) and the dishes sealed with surgical tape. The plates were transferred to 4°C and left for 64 h in the dark to vernalise, after which they were transferred to a 22°C growth cabinet. After 2 h of light exposure the plates were stacked vertically in the dark at 22°C to allow for hypocotyl extension along the agar surface. After 4–5 days the hypocotyls were observed using an optical microscope and their length measured. For experiments where the plants were allowed to form rosettes, the Arabidopsis seedlings were grown horizontally under a 16 h day in a 22°C growth cabinet for the indicated number of weeks.

[5] = molecular target: T2, M. mazei topo VI; test: Pyruvate kinase-linked ATPase assay; format: biochemical; conditions: data not shown
Experimental: ATPase assays were performed essentially as described previously except they were adapted to a microplate format using clear, colourless 96-well Microtitre plates (Pro-bind™, Becton Dickinson). Reactions were carried out in 100 µL of the established reaction buffer for either DNA gyrase of M. mazei topo VI [36], [62] supplemented with: 800 µM phosphoenolpyruvate (PEP), 400 µM NADH, 1% (vol/vol) PK/LDH (pyruvate kinase-lactate dehydrogenase mixture in 50% (w/v) glycerol,100 mM KCl, 10 mM HEPES (pH 7.0)) and the desired concentration of hit compound. ATP was initially withheld from the reaction. After 5 min incubation at room temperature the reactions were initiated by the addition of ATP and the absorbance at 340 nm was measured over the course of an hour using a Spectra Max Plus absorbance reader (Molecular Devices). Data were processed by omitting the first 10–15 min of collection and normalising the first retained time point. This was done to exclude artifacts observed within this time frame and for ease of comparison of rates. Controls lacking topoisomerase were used to assess the intrinsic ATPase activity of the test compounds.

[6] = molecular target: T2, M. mazei topo VI; test: Native gel shift assay, topo VI binding to 147 bp DNA fragment
Experimental: (§2) In order to test the effects of hit compounds upon DNA binding by topoisomerases, samples of enzyme and drug were prepared under the following conditions in a final volume of 10 μL: 1 nM 147 bp linear fragment of DNA derived from pBR322, [82] 50 mM Tris•HCl (pH 7.5), 100 mM KCl, 5 mM MgCl2, 2 mM DTT, 10% w/v glycerol. Samples were incubated for 30 min at room temperature before being run on a 5% (29:1) Protogel acrylamide (National Diagnostics) gel in 90 mM Tris·Borate, 5 mM MgCl2 at 150 V for 45 min. The DNA was stained by soaking in 2 µg/mL ethidium bromide for 10 min and visualised under UV light.

[7] = system: E. coli MG1655; test: Bacterial growth inhibition; format: cell-based, Escherichia coli; conditions: liquid and solid media
Experimental: (§3) For E. coli work, 10 mL cultures of E. coli MG1655 or NR698 were grown overnight at 37°C in LB medium. A 100 µL sample was then added to 10 mL of LB medium containing the desired concentration of compound. The culture was then allowed to grow at 37°C for 5 h and its OD600 measured every hour. For M. smegmatis, a 50 mL culture was grown for 48 h in Middlebrooks 7H11 medium at 37°C. A 100 µL sample was then added to 10 mL of Middlebrooks 7H11 containing the desired concentration of compound. The culture was then allowed to grow at 37°C for 9 h and its OD600 measured every three hours. For colony counting experiments M. smegmatis was grown for 48 h in 50 mL of Middlebrooks 7H9 medium at 37°C. A 100 µL sample was then added to 10 mL of Middlebrooks 7H9 medium containing the desired concentration test compound and allowed to grow at 37°C overnight. After 16 h, 20 µL samples were taken from these cultures and diluted 1 in 10,000 with Middlebrooks 7H9 medium. Petri dishes containing Middlebrooks 7H11 agar were prepared and 100 µL of each diluted culture was spread out. The plates were subsequently stored at 4°C. This was repeated every three hours for six hours, after which the plates were transferred to 37°C for 48 h. The numbers of colonies for each time point were counted manually.

[8] = system: M. smegmatis mc^2155; test: Bacterial growth inhibition and colony counting; format: cell-based, Mycobacterium smegmatis
Experimental: as §3

[9] = system: E. coli strain NR698; test: Bacterial growth inhibition, membrane-permeable strain; format: cell-based, Escherichia coli; conditions: liquid and solid media
Experimental: as §3

[10] = molecular target: T3, E. coli DNA gyrase (Escherichia coli, UniProt P0AES4+P0AES6); test: Protection from Ca2+-induced, gyrase-mediated DNA cleavage; format: biochemical; conditions: 80 µM, 4 mM calcium chloride
T3 construct: made in house
T3 sequence (P0AES4 whole entry, one chain of several): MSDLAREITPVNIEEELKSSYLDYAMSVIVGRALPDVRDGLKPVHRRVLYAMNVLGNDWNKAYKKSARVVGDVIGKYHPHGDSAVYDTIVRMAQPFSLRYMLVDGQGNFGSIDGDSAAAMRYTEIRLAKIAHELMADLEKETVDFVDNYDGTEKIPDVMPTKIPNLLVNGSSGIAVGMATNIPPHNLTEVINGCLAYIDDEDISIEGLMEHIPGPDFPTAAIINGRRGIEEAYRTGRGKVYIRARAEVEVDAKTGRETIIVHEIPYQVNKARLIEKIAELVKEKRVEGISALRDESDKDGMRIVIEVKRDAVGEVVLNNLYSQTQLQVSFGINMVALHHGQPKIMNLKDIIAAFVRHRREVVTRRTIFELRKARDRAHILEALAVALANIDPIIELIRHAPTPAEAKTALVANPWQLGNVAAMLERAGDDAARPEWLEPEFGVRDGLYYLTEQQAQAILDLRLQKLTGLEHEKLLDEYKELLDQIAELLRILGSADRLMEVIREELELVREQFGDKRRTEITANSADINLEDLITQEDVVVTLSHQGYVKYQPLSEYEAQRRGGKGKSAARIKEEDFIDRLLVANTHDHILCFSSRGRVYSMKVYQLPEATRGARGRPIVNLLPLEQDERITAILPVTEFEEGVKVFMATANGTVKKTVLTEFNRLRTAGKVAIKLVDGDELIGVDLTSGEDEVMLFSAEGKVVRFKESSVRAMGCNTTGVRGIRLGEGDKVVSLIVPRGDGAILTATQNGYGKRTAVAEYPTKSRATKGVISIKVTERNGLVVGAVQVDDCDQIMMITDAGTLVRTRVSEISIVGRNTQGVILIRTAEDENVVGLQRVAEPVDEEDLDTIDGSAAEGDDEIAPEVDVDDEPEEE
Experimental: (§4) Assays to detect the stabilisation of cleavage complexes were identical to the protocol for topoisomerase activity detailed above, except as follows. Cleavage experiments with DNA gyrase were carried out in the absence of ATP and spermidine and 30 µL reactions were stopped with 3 µL 10% SDS and incubated with 3 µL 1 mg/mL proteinase K solution at 37°C for 1 h. For cleavage complex protection assays with suramin, the reaction buffer was modified to contain 4 mM CaCl2 rather than MgCl2.

[11] = molecular target: T3, E. coli DNA gyrase; test: Native gel-shift assay, gyrase binding to 147 bp DNA fragment; conditions: 100 µM
Experimental: as §2

[12] = molecular target: T3, E. coli DNA gyrase; test: Gel-based gyrase-mediated DNA cleavage assay; format: biochemical; conditions: absence of ATP, concentration not given
Experimental: as §4

[13] = molecular target: T3, E. coli DNA gyrase; test: Agarose gel-based DNA supercoiling assay; format: biochemical
Experimental: as §1

With `CCCCCCc1ccc(O)cc1O` [Hexylresorcinol] the “Inhibition of S. shibatae topo VI” value [1] was “did not display any inhibition”, the “Hypocotyl cell size, seedlings with dwarf morphology” value [2] was about 50 µm and the “Inhibition in gel-based relaxation assay (hit validation)” value [3] was “validated as hits”. The IC50 [3] was 30 µM, the Average hypocotyl length ([4]; 40 µM) was “considerably reduced” and the “Plants able to develop into a rosette” value ([4]; 40 µM, three-week-old plants) was “seven of the 32 plants”. For the same molecule, the “Average length of seedlings (hypocotyl)” value ([4]; 50 µM, 10 mm in the absence of drug, 5 days in the dark) was “approximately 1 mm”, the Seed germination ([4]; 80 µM) was “germination was reduced” and the Seed germination ([4]; 100 µM) was “completely preventing seed germination; also recorded: no seeds germinated”. For the same molecule, the “Number of seeds germinated” value ([4]; up to 50 µM) was “remained constant”, the “Effect on M. mazei topo VI ATPase activity” value [5] was “appeared to increase the rate of ATP hydrolysis” and the “Effect on M. mazei topo VI ATPase activity” value ([5]; listed as hexylresorcinol) was “appears to stimulate hydrolysis of ATP”.
`Cc1ccc(C(=O)Nc2ccc(S(=O)(=O)O)c3cc(S(=O)(=O)O)cc(S(=O)(=O)O)c23)cc1NC(=O)c1cccc(NC(=O)Nc2cccc(C(=O)Nc3cc(C(=O)Nc4ccc(S(=O)(=O)O)c5cc(S(=O)(=O)O)cc(S(=O)(=O)O)c45)ccc3C)c2)c1` [Suramin] was tested, and the “Inhibition of S. shibatae topo VI” value [1] was “did not display any inhibition; also recorded: did not inhibit”, the “Effect on binding of M. mazei topo VI to DNA” value [6] was “appeared to prevent the binding of topo VI to DNA; also recorded: appeared to prevent G-segment binding” and the “Inhibition of growth / antimicrobial activity” value [7] was “no antimicrobial activity”. The Antimicrobial activity [8] was “no antimicrobial activity”, the “Inhibition of growth / antimicrobial activity” value [9] was “no antimicrobial activity” and the “Protection of DNA from Ca2+-induced cleavage by gyrase” value [10] was “completely protect DNA from cleavage”. The “Inhibition in gel-based relaxation assay (hit validation)” value [3] was “validated as hits”, the IC50 [3] was 30 µM and the “Mechanism (Topo VI)” value ([3]; summary of mechanistic tests with M. mazei and S. shibatae topo VI) was “Blocks DNA binding”. For the same molecule, the “Effect on gel shift of 147 bp DNA by DNA gyrase” value [11] was “abolishes this shift”, the “Induction of gyrase-mediated DNA cleavage” value [12] was “did not display any ability to induce cleavage” and the “Inhibition in gel-based supercoiling assay (hit validation)” value [13] was “displayed inhibition”. The IC50 ([13]; gel supercoiling assay, 1 unit of gyrase (12 nM), read-out: Approx. IC50 against E. coli DNA gyrase) was 80 µM and the “Mechanism (DNA gyrase)” value ([13]; summary of this study's mechanistic tests) was “Blocks DNA binding”.
